Values joined by “and” are separate entries in the source; they are usually repeats but may differ in a detail not shown here. Equal entries are not always repeated. *1 amine or outer side, *2 acyl side, *3 side chain or, on linkers, in order; H or OH if unused. Where a SMILES comes first, the peptide text is derived from it. Bridges are numbered along the chain shown (N, C = ends). Roman numbers before positions name the chains, in order. [ ]: non-standard residue; d: D form. Actinocin(9to1) = Cc1c2oc3c(C)ccc(C(=O)[*:1])c3nc-2c(C(=O)[*:2])c(N)c1=O; NMeV = CN[C@H](C(=O)O)C(C)C; Sar = CNCC(=O)O
Assays:
[1] = Stability in microdialysis buffer and in solution (assay validation); assay type: physicochemical; conditions: for 6-month stability in solution at 4°C, accuracy: ACN/H2O (1/1) + 0.1% FA solutions, 6 months; for 6-month stability in solution at 4°C, accuracy / 2 days buffer stability at RT, accuracy: N = 3; for 2 days buffer stability at RT, accuracy: microdialysate buffer (1% BSA Ringer)
Protocol: Plasma calibration samples were prepared by spiking blank plasma (75 µL) with 25 µL of the calibration sub-solution, yielding plasma concentrations of 0.05, 0.2, 0.5, 1, 3, 10, 30, and 100 ng/mL. Plasma QC samples were prepared accordingly at concentrations of 0.05, 0.15, 3, and 60 ng/mL. Brain tissue homogenate calibration samples were prepared by spiking brain tissue homogenate (75 µL), which was prepared at 100 mg tissue per mL of 5% aqueous ACN containing 0.5% Triton X, with 25 µL of the calibration sub-solution, yielding concentrations corresponding to 0.5, 2, 5, 10, 30, 100, 300, and 1000 ng/g. Brain tissue homogenate QC samples were prepared accordingly, at corresponding concentrations of 0.5, 1.5, 30, and 600 ng/g. Solutions were kept at 4 °C for up to 6 months.

[2] = Plasma and brain tissue concentrations after intravenous bolus injection (CNS disposition); assay type: in vivo, mice; conditions: for Brain-to-Plasma Ratio: total concentrations
Protocol: The experiments were carried out in accordance with the European regulations for care and use of laboratory animals (2010/63/EU) under the German license number G-187/18 and the internal reference number DKFZ374, approved by the responsible regional council (Regierungspräsidium Karlsruhe, Germany). Female 8-week-old NSG mice (NOD.Cg-Prkdc^scid Il2rg^tm1Wjl/SzJ-NOD-SCID gamma-mice) with a weight of approximately 25 g were used for the studies. For microdialysis experiments, a microdialysis guide cannula was stereotactically implanted into the right striatum and stabilized with screws and dental acrylic cement. Mice received analgesia (metamizole) and anesthesia with isoflurane during surgery. After six days of recovery, the microdialysis procedure was initiated. A microdialysis probe (CMA7, 1 mm, molecular cut-off 55 kDa, CMA Microdialysis AB, Kist, Sweden) was inserted through the guide cannula and connected to a pump system operating at a constant flow rate of 0.5 µL/min Ringer-1 % bovine serum albumin (BSA) solution. Throughout the study, mice could freely move. Microdialysis samples were serially collected each hour. Because the number of blood collections in individual mice is limited, we estimated the optimal timepoints for a pharmacokinetic feasibility study by allometric simulation of actinomycin D’s pharmacokinetic profile in mice according to published data in humans. For the allometric simulation, mouse plasma pharmacokinetic profiles were simulated by allometrically scaling the clearance and volumes parameters using classic exponents (0.75 for clearances and 1 for volumes) […], based on 0.5 mg/kg dosage. […] Therefore, we chose to take blood samples 0.75, 6, and 22 h after intravenous bolus injection into the tail vein for the assay’s feasibility pharmacokinetic experiment. Three animals received an intravenous bolus injection of 0.5 mg/kg actinomycin D in 0.125 mL per mouse (25 g) of a 0.1 mg/mL dosing solution. This dosage corresponds to the usual therapy protocols in humans according to allometric scaling. Full blood samples were transferred into citrate tubes (Sarstedt, Germany) and centrifuged at 1600× g for 10 min to generate plasma samples, which were stored at −80 °C until analysis. For determination of actinomycin D disposition in the CNS, brain tissue, and plasma samples were harvested following euthanasia with increasing concentrations of CO2 at 2 h (three animals) or 22 h (four animals) after intravenous bolus injection of 0.5 mg/kg actinomycin D. Samples were stored at −80 °C until analysis. For validation of the UPLC-MS/MS quantification, blank plasma from 6 naïve mice was used and blank brain tissue was obtained from 2 unexposed mice. Whole brain tissue was homogenized using a Bead Ruptor 4 homogenizer (Omni International Inc, Kennesaw, GA, USA) in acetonitrile (ACN)/water (1/19, v/v) + 0.5 % Triton X and 0.1 % formic acid (FA) (100 mg brain tissue/mL) in 2.0 mL tubes containing ~25 glass beads (0.75–1 mm; Carl Roth GmbH, Karlsruhe, Germany) for 2 × 1 min.
For protein precipitation of plasma microsamples, an excess of ACN (50 µL) with 0.1% FA containing the IS was applied to an Impact® 96-well protein precipitation plate (Phenomenex, Torrance, CA, USA). Subsequently, 20 µL of the plasma samples were added and the plates sealed and shaken for 1 min. Brain tissue homogenate samples were processed accordingly. For protein depletion, samples were filtered into a 96-well collection plate (Waters, Milford, MA, USA) by applying positive pressure with a 96-well positive pressure unit (Waters, Milford, MA, USA) operated with air overpressure of 5 psi. After addition of 40 µL of water containing 0.1% FA, the collection plates were sealed, shaken, and extracts injected onto the UPLC system.

P-gp/ABCB1 = P-gp/ABCB1 (Homo sapiens, UniProt P08183); conditions: 0.01 µM, 10-120 min, 37 °C, 1 million cells, duplicate, cell homogenate UPLC-MS/MS; L-MDR1 vs LLC-PK1
Protocol: To confirm the P-gp substrate characteristics of actinomycin D, we conducted growth inhibition and uptake assays in a cell line over-expressing human P-gp/ABCB1 (L-MDR1 cells) in comparison to the respective parental cell line (LLC-PK1). L-MDR1 cells were kindly provided by A. H. Schinkel (The Netherlands Cancer Institute, Division of Experimental Therapy, Amsterdam, The Netherlands). The cells were cultured under standard cell culture conditions with medium M199 supplemented with 10% FCS, 2 mM glutamine, 100 U/mL penicillin, and 100 µg/mL streptomycin sulfate. The culture medium for L-MDR1 was supplemented with 0.64 µM vincristine to maintain P-gp/ABCB1 expression. One day before using the cells in the assays, both cell lines were fed with vincristine-free culture medium.

in vitro = conditions: mouse, plasma
Protocol: To determine the previously unknown unbound fraction of actinomycin D in plasma and brain tissue homogenate, we performed rapid equilibrium dialysis (RED) in duplicate. For this, samples were spiked with drug solutions that were prepared in plasma or brain tissue homogenate to obtain minimally diluted samples (30 ng/mL for plasma and 30 ng/g for brain tissue). The free actinomycin D tissue fraction was also quantified in a pooled sample of brain tissue homogenates from the three mice euthanized 2 h after dosing. Determinations were performed on a RED apparatus (ThermoFisher Scientific, Waltham, MA, USA) according to the manufacturer´s instructions under gentle agitation for 12 h at 37 °C.

Chain of P-gp/ABCB1 (P08183 whole entry): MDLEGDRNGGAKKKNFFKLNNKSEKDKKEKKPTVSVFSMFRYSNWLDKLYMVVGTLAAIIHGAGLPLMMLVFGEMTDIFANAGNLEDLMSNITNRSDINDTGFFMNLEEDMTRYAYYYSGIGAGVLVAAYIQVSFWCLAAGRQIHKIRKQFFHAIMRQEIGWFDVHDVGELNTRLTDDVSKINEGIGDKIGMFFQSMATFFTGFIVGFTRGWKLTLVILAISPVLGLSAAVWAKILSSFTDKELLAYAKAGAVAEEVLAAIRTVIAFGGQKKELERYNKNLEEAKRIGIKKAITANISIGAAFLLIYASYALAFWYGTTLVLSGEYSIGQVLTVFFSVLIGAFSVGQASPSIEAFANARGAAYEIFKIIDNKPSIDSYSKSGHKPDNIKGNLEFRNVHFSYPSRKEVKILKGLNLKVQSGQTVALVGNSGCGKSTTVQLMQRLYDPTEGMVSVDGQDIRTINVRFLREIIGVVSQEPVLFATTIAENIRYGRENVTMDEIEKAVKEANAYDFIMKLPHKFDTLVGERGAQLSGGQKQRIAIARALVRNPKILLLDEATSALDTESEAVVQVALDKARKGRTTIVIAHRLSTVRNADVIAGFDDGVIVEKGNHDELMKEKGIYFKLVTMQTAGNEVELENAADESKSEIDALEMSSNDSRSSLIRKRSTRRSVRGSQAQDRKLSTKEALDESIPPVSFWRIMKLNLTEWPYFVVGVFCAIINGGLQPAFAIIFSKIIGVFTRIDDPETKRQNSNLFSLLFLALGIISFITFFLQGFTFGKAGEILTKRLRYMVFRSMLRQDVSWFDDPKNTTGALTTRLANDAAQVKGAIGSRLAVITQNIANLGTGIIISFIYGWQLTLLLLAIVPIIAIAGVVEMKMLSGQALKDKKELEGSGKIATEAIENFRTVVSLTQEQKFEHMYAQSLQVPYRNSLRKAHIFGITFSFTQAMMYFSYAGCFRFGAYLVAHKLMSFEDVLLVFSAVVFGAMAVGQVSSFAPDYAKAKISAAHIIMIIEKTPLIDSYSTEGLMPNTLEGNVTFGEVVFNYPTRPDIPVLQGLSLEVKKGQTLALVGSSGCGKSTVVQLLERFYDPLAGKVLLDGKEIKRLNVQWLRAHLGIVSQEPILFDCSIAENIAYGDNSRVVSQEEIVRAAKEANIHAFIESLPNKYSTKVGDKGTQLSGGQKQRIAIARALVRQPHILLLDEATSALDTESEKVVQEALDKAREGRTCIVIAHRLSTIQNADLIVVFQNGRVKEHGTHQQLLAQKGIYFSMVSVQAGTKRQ

SMILES: Cc1c2oc3c(C)ccc(C(=O)N[C@@H]4C(=O)N[C@H](C(C)C)C(=O)N5CCC[C@H]5C(=O)N(C)CC(=O)N(C)[C@@H](C(C)C)C(=O)O[C@@H]4C)c3nc-2c(C(=O)N[C@@H]2C(=O)N[C@H](C(C)C)C(=O)N3CCC[C@H]3C(=O)N(C)CC(=O)N(C)[C@@H](C(C)C)C(=O)O[C@@H]2C)c(N)c1=O [actinomycin D, Actinomycin D] (I: T[dV]P[Sar][NMeV] / II: T[dV]P[Sar][NMeV]; ester I:1-I:C, II:1-II:C; linker I:N-II:N via Actinocin(9to1))
- stability in the microdialysis buffer ([1]; 1% BSA in Ringer solution, 2 d, room temperature): stable
- 6-month stability in solution at 4°C, accuracy ([1]; High QC 60.0 ng/mL): 87.2%
- 6-month stability in solution at 4°C, accuracy ([1]; Low QC 0.150 ng/mL): 88.3%
- 6-month stability in solution at 4°C, accuracy ([1]; Medium QC 3.00 ng/mL): 86.4%
- 2 days buffer stability at RT, accuracy ([1]; room temperature, High QC 60.0 ng/mL): 104.7%
- 2 days buffer stability at RT, accuracy ([1]; room temperature, Low QC 0.150 ng/mL): 108.7%
- 2 days buffer stability at RT, accuracy ([1]; room temperature, Medium QC 3.00 ng/mL): 113.5%
- time stable in solution ([1]; stored solutions kept at 4 °C): at least 6 months
- level at time molar at 2 h ([2]; female, NSG (NOD.Cg-Prkdc^scid Il2rg^tm1Wjl/SzJ), mouse, brain, iv, mice, 0.5 mg/kg i.v., after 2 h, read-out: brain tissue concentration): ~3 nM
- level at time molar at 22 h ([2]; female, NSG (NOD.Cg-Prkdc^scid Il2rg^tm1Wjl/SzJ), mouse, brain, iv, mice, 0.5 mg/kg i.v., after 22 h, read-out: brain tissue concentration): ~1.2 nM
- tissue level at time at 2 h ([2]; female, NSG (NOD.Cg-Prkdc^scid Il2rg^tm1Wjl/SzJ), mouse, iv, mice, 0.5 mg/kg i.v., 2 h, whole brain homogenate after cardiac perfusion with PBS, UPLC-MS/MS, mean of 3 mice, read-out: Brain Actinomycin D (total brain tissue concentration)): 4.1 ng/g
- level at 2 h ([2]; female, NSG (NOD.Cg-Prkdc^scid Il2rg^tm1Wjl/SzJ), mouse, plasma, iv, mice, 0.5 mg/kg i.v., 2 h after administration, UPLC-MS/MS, mean of 3 mice, read-out: Plasma Actinomycin D): 22.7 ± 3.9 ng/mL
- tissue level at time at 22 h ([2]; female, NSG, mouse, iv, mice, 0.5 mg/kg i.v., 22 h, whole brain homogenate after cardiac perfusion with PBS, UPLC-MS/MS, mean of 4 mice, read-out: Brain Actinomycin D (total brain tissue concentration)): 1.67 ± 0.77 ng/g
- level at 22 h ([2]; female, NSG, mouse, plasma, iv, mice, 0.5 mg/kg i.v., 22 h after administration, UPLC-MS/MS, mean of 4 mice, read-out: Plasma Actinomycin D): 3.4 ± 1.45 ng/mL
- Brain Actinomycin D (total brain tissue concentration) ([2]; mice, 0.5 mg/kg i.v., 2 h, whole brain homogenate after cardiac perfusion with PBS, UPLC-MS/MS, mean of 3 mice, 0.5 mg/kg): 4.14 ± 0.50 ng/g
- Brain-to-Plasma Ratio ([2]; mice, 0.5 mg/kg i.v., 2 h, mean of 3 mice, 0.5 mg/kg): 0.18 and 0.18 ± 0.03
- Brain-to-Plasma Ratio ([2]; mice, 0.5 mg/kg i.v., 2 h, mouse 1): 0.21
- Brain-to-Plasma Ratio ([2]; mice, 0.5 mg/kg i.v., 2 h, mouse 2): 0.18
- Brain-to-Plasma Ratio ([2]; mice, 0.5 mg/kg i.v., 2 h, mouse 3): 0.16
- Brain-to-Plasma Ratio ([2]; mice, 0.5 mg/kg i.v., 22 h, mean of 4 mice): 0.53 ± 0.26
- Brain-to-Plasma Ratio ([2]; mice, 0.5 mg/kg i.v., 22 h, mouse 4): 0.80
- Brain-to-Plasma Ratio ([2]; mice, 0.5 mg/kg i.v., 22 h, mouse 5): 0.37
- Brain-to-Plasma Ratio ([2]; mice, 0.5 mg/kg i.v., 22 h, mouse 6): 0.18
- Brain-to-Plasma Ratio ([2]; mice, 0.5 mg/kg i.v., 22 h, mouse 7): 0.77
- actinomycin D concentration in brain tissue homogenate ([2]; mouse #1, 0.5 mg/kg i.v., 2 h, homogenate at 0.1 g tissue/mL, UPLC-MS/MS): 0.409 ng/mL
- accumulation in P-gp over-expressing cell line versus parental cell line (P-gp/ABCB1): lower accumulation
- fraction unbound at 12 h, 30 ng/mL (in vitro): 0.231

From PMC8466300, “Investigating the Central Nervous System Disposition of Actinomycin D: Implementation and Evaluation of Cerebral Microdialysis and Brain Tissue Measurements Supported by UPLC-MS/MS Quantification” (Pharmaceutics, 2021)
